Results published in article PMC10544195, “Identification of novel SCD1 inhibitor alleviates nonalcoholic fatty liver disease: critical role of liver-adipose axis” (Cell Communication and Signaling : CCS, 2023).

Tested on: T1, SCD1
T1 construct: IC50 assay and protein source not described; activity elsewhere measured in mouse OP9 and AML12 cells (native enzyme)
Test: SCD1 inhibition, assay not described
Type: cell-based
Conditions: assay system not stated

| IC50 | Structure (SMILES) |
| --- | --- |
| 2.8 µM | CNC(=O)c1cccc(NC(=O)N2CCC(Oc3ccccc3Cl)CC2)c1 [A939572] |
| 0.98 µM | c1cc(-c2nc3ccc(OCCCN4CCCC4)cc3o2)ccc1OCCCN1CCCC1 [E6446] |
